Results on 19 compounds are retold here after US20240408169A1 (priority 2023, published 2024).

Where two headings read alike, the source gives them in different places. *1 amine or outer side, *2 acyl side, *3 side chain or, on linkers, in order; H or OH if unused. Where a SMILES comes first, the peptide text is derived from it. Bridges are numbered along the chain shown (N, C = ends). [ ]: non-standard residue; d: D form. The star is where a group is joined. X216 = CN1CCC(c2ccc(Cl)cc2C[C@@H](C(=O)[*:2])N(C)[*:1])=CC1=O; NMehhhLys(Me) = CN([C@@H](CCCCCCCN(C)[*:3])C(=O)[*:2])[*:1]; X215 = Cc1noc(C)c1-c1ccc(Cl)cc1C[C@@H](C(=O)[*:2])N(C)[*:1]; NMe(hhhLys) = CN([C@@H](CCCCCCCN[*:3])C(=O)[*:2])[*:1]; NMe3Pal(2-OMe,5-Cl) = CN[C@@H](Cc1cc(Cl)cnc1OC)C(=O)O; X213 = CN([C@@H](Cc1cc(Cl)cc2c1cnn2C)C(=O)[*:2])[*:1]; X214 = CC(C)Cc1ccc(Cl)cc1C[C@@H](C(=O)[*:2])N(C)[*:1]; cBuCO(3,3-F2-1-CF3) = O=C(C1(C(F)(F)F)CC(F)(F)C1)*; Pro(trans-4-F) = O=C(O)[C@@H]1C[C@@H](F)CN1; Gly(cPr) = N[C@H](C(=O)O)C1CC1

Experiment [1] deals with T1, CyclinB1/CDK1 (Homo sapiens, UniProt P14635).
T1 construct: purchased Eurofins, discovery 14-450
The experiment can be described thus: Fluorescence Polarization (FP) competitive binding assay, Cyclin B1/Cdk1.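 Note: fluorescence polarization read after equilibration at room temperature, with IC50 taken from serially diluted dose-response curves.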

For experiment [2], the system named is OVCAR3 cells. As to the kind of experiment: MTT proliferation assay, OVCAR3.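 Note: compound given as an 8- or 10-point series, one day after plating, with exposure covering roughly 3-4 cell doublings.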 Type of experiment: cell-based. The following applies: 5 days compound exposure, 1:3 serial dilution starting at 10 μM. On the technique in general: Tetrazolium dyes change colour on reduction, which living cells bring about.
In experiment [3] the target is T2, CyclinE1/CDK2 (Homo sapiens, UniProt P24864).
T2 construct: purchased Eurofins, discovery 14-475
As to the kind of experiment: Fluorescence Polarization (FP) competitive binding assay, Cyclin E1/Cdk2.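 Note: readings taken after two-hour equilibration at room temperature in HEPES buffer with NaCl, DTT, NP-40 and BSA, IC50 fitted from eight-concentration serial dilution series.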 In general terms: Polarisation of emitted light reports the rotation of a fluorescent probe.

Experiment [4] deals with T3, CyclinA2/CDK2 (Homo sapiens, UniProt P20248).
T3 construct: purchased CRELUX Protein Services
The experiment can be described thus: Fluorescence Polarization (FP) competitive binding assay, Cyclin A2/Cdk2.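 Note: plates equilibrated two hours at room temperature before polarization reading, IC50 fitted from eight-concentration compound titration curves.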

Experiment [5] relates to NCI-H1048 cells. As to the kind of experiment: MTT proliferation assay, NCI-H1048.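 Note: Dose-response in 96-well plates over 8 or 10 concentration points, with exposure spanning 3-4 cell doublings.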 It counts as cell-based. The following applies: 5 days compound exposure, 1:3 serial dilution starting at 10 μM.
Where [6] appears, read: 10 nM Cyclin B1/Cdk1, 2 nM FAM probe; average of 2-3 independent experiments; read-out: Cyclin B FP IC50.
[7] abbreviates: 10 nM Cyclin E1/Cdk2, 2 nM FAM probe, average of 2-3 independent experiments, read-out: Cyclin E FP IC50.
Setting [8] is: 8 nM Cyclin A2/Cdk2, 2 nM FAM probe, average of 2-3 independent experiments, read-out: Cyclin A FP IC50.
Where [9] appears, read: read-out: Cyclin B FP IC50; 10 nM Cyclin B1/Cdk1, 2 nM FAM probe; average of 2-3 independent experiments.

Broadly, the IC50 is the concentration needed to halve the response being measured. Broadly, the GI50 is the concentration that inhibits growth by half. Read a high GI50 as lower sensitivity of the cells. Take `CC(C)C[C@@H]1NC(=O)[C@@H](N(C)C(=O)[C@@H](NC(=O)[C@@H]2C[C@@H](F)CN2C(=O)C2(C(F)(F)F)CC2)C2CC2)CC=CCCCCNC(=O)[C@H](Cc2cc(Cl)ccc2Cl)N(C)C1=O` (single isomer, unassigned) [Example 5-P1]: the IC50 in experiment [1] (setting [6]) came to 20 nM; in experiment [3] (setting [7]), 700 nM; in experiment [4] (setting [8]) it was 790 nM. In addition, the GI50 came to 690 nM in experiment [2] and 390 nM in experiment [5].
The matching figures for `CC(C)C[C@@H]1NC(=O)[C@@H](N(C)C(=O)[C@@H](NC(=O)[C@@H]2C[C@@H](F)CN2C(=O)C2(C(F)(F)F)CC2)C2CC2)CC=CCCCCNC(=O)[C@H](Cc2cc(Cl)ccc2Cl)N(C)C1=O` (single isomer, unassigned) [Example 5-P2]: 20 nM, 460 nM, 560 nM, 560 nM and 290 nM.
For `CC(=O)N1C2CCC1CC(c1ccc(F)cc1C[C@H]1C(=O)N(C)CCCCCCC[C@H](N(C)C(=O)[C@@H](NC(=O)[C@@H]3C[C@@H](F)CN3C(=O)C3(C(F)(F)F)CC(F)(F)C3)C3CC3)C(=O)N[C@@H](CC(C)C)C(=O)N1C)C2` (single isomer, unassigned) [Example 59-P1] the same measures were 20 nM, 850 nM, 120 nM, 20 nM and 20 nM.
As to `CC(=O)N1C2CCC1CC(c1ccc(F)cc1C[C@H]1C(=O)N(C)CCCCCCC[C@H](N(C)C(=O)[C@@H](NC(=O)[C@@H]3C[C@@H](F)CN3C(=O)C3(C(F)(F)F)CC(F)(F)C3)C3CC3)C(=O)N[C@@H](CC(C)C)C(=O)N1C)C2` (single isomer, unassigned) [Example 59-P2], the IC50 in experiment [1] (setting [6]) stood at 20 nM; in experiment [3] (setting [7]) it was 870 nM; in experiment [4] (setting [8]), 180 nM. In addition, the GI50 was determined as 50 nM in experiment [2] and 60 nM in experiment [5].
The matching figures for `CC(C)C[C@@H]1NC(=O)[C@@H](N(C)C(=O)[C@@H](NC(=O)[C@@H]2C[C@@H](F)CN2C(=O)C2(C(F)(F)F)CC(F)(F)C2)C2CC2)CC=CCCCCNC(=O)[C@H](Cc2cc(Cl)cnc2OC2CC2)N(C)C1=O` (single isomer, unassigned) [Example 102-P1]: 20 nM, 1110 nM, 310 nM, 810 nM and 350 nM.
The matching figures for `CC(C)C[C@@H]1NC(=O)[C@@H](N(C)C(=O)[C@@H](NC(=O)[C@@H]2C[C@@H](F)CN2C(=O)C2(C(F)(F)F)CC(F)(F)C2)C2CC2)CC=CCCCCNC(=O)[C@H](Cc2cc(Cl)cnc2OC2CC2)N(C)C1=O` (single isomer, unassigned) [Example 102-P2]: 20 nM, 310 nM, 120 nM, 130 nM and 80 nM.
Turning to `CC(C)C[C@@H]1NC(=O)[C@@H](N(C)C(=O)[C@@H](NC(=O)[C@@H]2C[C@@H](F)CN2C(=O)C2(C(F)(F)F)CCC2)C2CC2)CC=CCCCCNC(=O)[C@H](Cc2cc(Cl)cnc2OC2CC2)N(C)C1=O` (single isomer, unassigned) [Example 107-P2], the IC50 stood at 20 nM in experiment [1] (setting [6]), 180 nM in experiment [3] (setting [7]) and 110 nM in experiment [4] (setting [8]). The GI50 in experiment [2] was 320 nM; in experiment [5], 190 nM.
The matching figures for `Cc1nnc(-c2ccc(Cl)cc2C[C@H]2C(=O)NCCCCC=CC[C@H](N(C)C(=O)[C@@H](NC(=O)[C@@H]3C[C@@H](F)CN3C(=O)C3(C(F)(F)F)CCC3)C3CC3)C(=O)N[C@@H](CC(C)C)C(=O)N2C)o1` (single isomer, unassigned) [Example 117-P1]: 20 nM, 340 nM, 80 nM, 180 nM and 230 nM.
Consider `Cc1nnc(-c2ccc(Cl)cc2C[C@H]2C(=O)NCCCCC=CC[C@H](N(C)C(=O)[C@@H](NC(=O)[C@@H]3C[C@@H](F)CN3C(=O)C3(C(F)(F)F)CCC3)C3CC3)C(=O)N[C@@H](CC(C)C)C(=O)N2C)o1` (single isomer, unassigned) [Example 117-P2], for which the IC50 came out at 20 nM in experiment [1] (setting [6]), 160 nM in experiment [3] (setting [7]) and 60 nM in experiment [4] (setting [8]). Also, the GI50 in experiment [2] is 60 nM; in experiment [5], 90 nM.
In the case of `Cc1nnc(-c2ccc(Cl)cc2C[C@H]2C(=O)NCCCCC=CC[C@H](N(C)C(=O)[C@@H](NC(=O)[C@@H]3C[C@@H](F)CN3C(=O)C3(C(F)(F)F)CC(F)(F)C3)C3CC3)C(=O)N[C@@H](CC(C)C)C(=O)N2C)o1` (single isomer, unassigned) [Example 118-P1], the IC50 was determined as 20 nM in experiment [1] (setting [6]), 740 nM in experiment [3] (setting [7]) and 110 nM in experiment [4] (setting [8]). The GI50 was 170 nM in experiment [2] and 180 nM in experiment [5].
For `Cc1nnc(-c2ccc(Cl)cc2C[C@H]2C(=O)NCCCCC=CC[C@H](N(C)C(=O)[C@@H](NC(=O)[C@@H]3C[C@@H](F)CN3C(=O)C3(C(F)(F)F)CC(F)(F)C3)C3CC3)C(=O)N[C@@H](CC(C)C)C(=O)N2C)o1` (single isomer, unassigned) [Example 118-P2], the IC50 in experiment [1] (setting [6]) was 20 nM; in experiment [3] (setting [7]), 300 nM; in experiment [4] (setting [8]), 60 nM. The concentration for 50% growth inhibition (GI50) in experiment [2] and in experiment [5] was 50 nM throughout.
For the compound `CC(C)C[C@@H]1NC(=O)[C@@H](N(C)C(=O)[C@@H](NC(=O)[C@@H]2C[C@@H](F)CN2C(=O)C2(C(F)(F)F)CCC2)C2CC2)CC=CCCCCNC(=O)[C@H](Cc2cc(Cl)ccc2Oc2ncccn2)N(C)C1=O` (single isomer, unassigned) [Example 156-P1], the IC50 worked out at 20 nM in experiment [1] (setting [6]), 830 nM in experiment [3] (setting [7]) and 890 nM in experiment [4] (setting [8]). The GI50 in experiment [2] worked out at 530 nM; in experiment [5] it was 480 nM.
For `CC(C)C[C@@H]1NC(=O)[C@@H](N(C)C(=O)[C@@H](NC(=O)[C@@H]2C[C@@H](F)CN2C(=O)C2(C(F)(F)F)CC(F)(F)C2)C2CC2)CC=CCCCCNC(=O)[C@H](Cc2cc(Cl)ccc2-c2cccc(Cl)c2)N(C)C1=O` [Example 19], the IC50 in experiment [1] (setting [6]) came to 20 nM; in experiment [4] (setting [8]), 430 nM. In addition, the GI50 in experiment [2] was 1760 nM; in experiment [5], 550 nM.
For the compound `CC(C)C[C@@H]1NC(=O)[C@@H](N(C)C(=O)[C@@H](NC(=O)[C@@H]2C[C@@H](F)CN2C(=O)C2(C(F)(F)F)CC(F)(F)C2)C2CC2)CC=CCCCCNC(=O)[C@H](Cc2cc(Cl)ccc2C2=CCC(F)(F)CC2)N(C)C1=O` [Example 22], the figures for the IC50 in experiment [1] (setting [6]) and in experiment [4] (setting [8]) were 20 nM and 210 nM, respectively. In addition, the GI50 in experiment [2] was 1800 nM; in experiment [5], 1100 nM.
Take `CC(C)Cc1ccc(Cl)cc1C[C@H]1C(=O)NCCCCCCC[C@H](N(C)C(=O)[C@@H](NC(=O)[C@@H]2C[C@@H](F)CN2C(=O)C2(C(F)(F)F)CC(F)(F)C2)C2CC2)C(=O)N[C@@H](CC(C)C)C(=O)N1C` [Example 64] ({cBuCO(3,3-F2-1-CF3)}-[Pro(trans-4-F)][Gly(cPr)][NMe(hhhLys)]L[X214]; lactam 3-C): the results for the IC50 in experiment [1] (setting [6]) and in experiment [4] (setting [8]) were 20 nM and 380 nM, respectively. Moreover, the GI50 in experiment [2] stood at 1240 nM; in experiment [5], 510 nM.
As to `Cc1noc(C)c1-c1ccc(Cl)cc1C[C@H]1C(=O)N(C)CCCCCCC[C@H](N(C)C(=O)[C@@H](NC(=O)[C@@H]2C[C@@H](F)CN2C(=O)C2(C(F)(F)F)CC(F)(F)C2)C2CC2)C(=O)N[C@@H](CC(C)C)C(=O)N1C` [Example 210] ({cBuCO(3,3-F2-1-CF3)}-[Pro(trans-4-F)][Gly(cPr)][NMehhhLys(Me)]L[X215]; lactam 3-C), the IC50 came out at 20 nM in experiment [1] (setting [9]) and 420 nM in experiment [4]. Also, the concentration for 50% growth inhibition (GI50) was 110 nM in experiment [2] and 100 nM in experiment [5].
For `COc1ncc(Cl)cc1C[C@H]1C(=O)N(C)CCCCCCC[C@H](N(C)C(=O)[C@@H](NC(=O)[C@@H]2C[C@@H](F)CN2C(=O)C2(C(F)(F)F)CC(F)(F)C2)C2CC2)C(=O)N[C@@H](CC(C)C)C(=O)N1C` [Example 222] ({cBuCO(3,3-F2-1-CF3)}-[Pro(trans-4-F)][Gly(cPr)][NMehhhLys(Me)]L[NMe3Pal(2-OMe,5-Cl)]; lactam 3-C), the IC50 in experiment [1] (setting [9]) is 20 nM; in experiment [3] it was 230 nM. Besides, the GI50 in experiment [2] and in experiment [5] was 10 nM throughout.
As to `CC(C)C[C@@H]1NC(=O)[C@@H](N(C)C(=O)[C@@H](NC(=O)[C@@H]2C[C@@H](F)CN2C(=O)C2(C(F)(F)F)CC(F)(F)C2)C2CC2)CCCCCCCN(C)C(=O)[C@H](Cc2cc(Cl)ccc2C2=CC(=O)N(C)CC2)N(C)C1=O` [Example 237] ({cBuCO(3,3-F2-1-CF3)}-[Pro(trans-4-F)][Gly(cPr)][NMehhhLys(Me)]L[X216]; lactam 3-C), the IC50 stood at 20 nM in experiment [1] (setting [9]) and 1140 nM in experiment [3] (Cyclin E FP IC50, 10 nM Cyclin E1/Cdk2, 2 nM FAM probe, average of 2-3 independent experiments). The GI50 in experiment [2] was 40 nM; in experiment [5], 10 nM.
For the compound `CC(C)C[C@@H]1NC(=O)[C@@H](N(C)C(=O)[C@@H](NC(=O)[C@@H]2C[C@@H](F)CN2C(=O)C2(C(F)(F)F)CC(F)(F)C2)C2CC2)CCCCCCCN(C)C(=O)[C@H](Cc2cc(Cl)cc3c2cnn3C)N(C)C1=O` [Example 424] ({cBuCO(3,3-F2-1-CF3)}-[Pro(trans-4-F)][Gly(cPr)][NMehhhLys(Me)]L[X213]; lactam 3-C), the values for the IC50 in experiment [1] (setting [6]) and in experiment [3] (setting [7]) were 45.5 nM and 3820 nM, respectively. The GI50 in experiment [2] was found to be 1780 nM; in experiment [5], 2510 nM.
